Results reported in patent publication US20140154264A1, “COMPOSITIONS AND METHODS FOR TREATING CANCER AND DISEASES AND CONDITIONS RESPONSIVE TO CELL GROWTH INHIBITION” (THE REGENTS OF THE UNIVERSITY OF CALIFORNIA, priority 2011, published 2014).
Where two headings read alike, the source gives them in different places.

Tests used:
[1] = system: orthotopic FG pancreatic tumors; test: orthotopic pancreas cancer xenograft model; assay type: in vivo, mice
Excerpt: (§1) The longer cells were exposed to erlotinib the greater the expression level of αvβ3 was observed, FIG. 26b. […] Thus, exposure of histologically distinct tumor cells in vitro or in vivo to EGFR inhibitors selects for a tumor cell population expressing high levels of αvβ3.
(§2) In all cases, β3 expressing tumor cells were intrinsically more resistant to EGFR blockade than β3-negative tumor cell lines (FIG. 26e).
(a) Flow cytometric quantification of cell surface markers after 3 weeks treatment with erlotinib (pancreatic and colon cancer cells) or lapatinib (breast cancer cells). (b) Flow cytometric analysis of αvβ3 expression in FG and Miapaca-2 cells following erlotinib. Error bars represent s.d. (n=3 independent experiments). (c) Top, immunofluorescence staining of integrin αvβ3 in tissue specimens obtained from orthotopic pancreatic tumors treated with vehicle (n=3) or erlotinib (n=4). Scale bar, 50 μm. Bottom, Integrin αvβ3 expression was quantified as ratio of integrin αvβ3 pixel area over nuclei pixel area using Metamorph (*P=0.049 using Mann-Whitney U test). (d) Right, intensity (scale 0 to 3) of β3 expression in mouse orthotopic lung tumors treated with vehicle (n=8) or erlotinib (n=7). Left, immunohistochemical staining of β3. Scale bar, 100 μm. […] Results are expressed as % tumor weight compared to vehicle control. *P<0.05. […]

[2] = system: H441 human lung adenocarcinoma orthotopic tumors; test: orthotopic lung cancer xenograft model; assay type: in vivo, mice; settings: systemic erlotinib for 7-8 weeks
Excerpt: as §1
(a) Flow cytometric quantification of cell surface markers after 3 weeks treatment with erlotinib (pancreatic and colon cancer cells) or lapatinib (breast cancer cells). (b) Flow cytometric analysis of αvβ3 expression in FG and Miapaca-2 cells following erlotinib. Error bars represent s.d. (n=3 independent experiments). […] Bottom, Integrin αvβ3 expression was quantified as ratio of integrin αvβ3 pixel area over nuclei pixel area using Metamorph (*P=0.049 using Mann-Whitney U test). […] Results are expressed as % tumor weight compared to vehicle control. *P<0.05.
Immunostaining was performed according to the manufacturer's recommendations (Vector Labs) on […] sections of paraffin-embedded tumors from the orthotopic xenograft pancreas and lung cancer mouse models^14 or from a metastasis tissue array purchased from US Biomax (MET961). […] Sections stained with integrin β3 and active Ral were scored by a H-score according to the staining intensity (SI) on a scale 0 to 3 within the whole tissue section.

[3] = system: PANC-1 cells; test: tumor sphere formation assay; assay type: cell-based, human; settings: αvβ3 knockdown vs control
Excerpt: as §2
(a) Flow cytometric quantification of cell surface markers after 3 weeks treatment with erlotinib (pancreatic and colon cancer cells) or lapatinib (breast cancer cells). (b) Flow cytometric analysis of αvβ3 expression in FG and Miapaca-2 cells following erlotinib. Error bars represent s.d. (n=3 independent experiments). (c) Top, immunofluorescence staining of integrin αvβ3 in tissue specimens obtained from orthotopic pancreatic tumors treated with vehicle (n=3) or erlotinib (n=4). Scale bar, 50 μm. Bottom, Integrin αvβ3 expression was quantified as ratio of integrin αvβ3 pixel area over nuclei pixel area using Metamorph (*P=0.049 using Mann-Whitney U test). (d) Right, intensity (scale 0 to 3) of β3 expression in mouse orthotopic lung tumors treated with vehicle (n=8) or erlotinib (n=7). Left, immunohistochemical staining of β3. Scale bar, 100 μm. […] (f) Tumor sphere formation assay to establish a dose-response for erlotinib. Error bars represent s.d. (n=3 independent experiments). […] Results are expressed as % tumor weight compared to vehicle control. *P<0.05.
Tumor spheres formation assays were performed essentially as described previously^17. […] Colonies were stained with crystal violet and scored with an Olympus SZH10 microscope.

[4] = system: FG and FG-β3 cells; test: tumor sphere formation assay; assay type: cell-based, human; settings: for effect of αvβ3 expression on drug resistance: in vitro, FG cells lacking vs expressing αvβ3
Protocol: (n=3 independent experiments); as discussed in detail in Example 1, below.
Therefore, we examined whether αvβ3 expression also promotes resistance to other growth factor inhibitors and/or cytotoxic agents.
Immunoblot analysis of FG, FG-β3 and FG-β3 stably expressing non-silencing or RalB-specific ShRNA, grown in suspension and treated with erlotinib (0.5 μM). pTBK1 refers to phospho-S172 TBK1, p-p65 NF-κB refers to phospho-p65 NF-κB S276, pFAK refers to phospho-FAK Tyr 861. […] Error bars represent s.d. (n=3 independent experiments). *P<0.05, **P<0.001, NS=not significant. Immunoblot analysis showing NF-κB WT and S276D NF-κB FLAG transfection efficiency. (c) Tumor spheres formation assay of FG-β3 treating with non-silencing (shCTRL) or NF-κB-specific shRNA and exposed to erlotinib (0.5 μM). Error bars represent s.d. (n=3 independent experiments). *P<0.05, NS=not significant. (d) Dose response in FG-β3 cells treated with erlotinib (10 nM to 5 μM), lenalidomide (10 nM to 5 μM) or a combination of erlotinib (10 nM to 5 μM) and lenalidomide (1 μM). Error bars represent s.d. (n=3 independent experiments). *P<0.05, NS=not significant.
Tumor spheres formation assays were performed essentially as described previously^17. Briefly, cells were seeded at 1000 to 2000 cells per well and grown for 12 days to 3 weeks. Cells were treated with vehicle (DMSO), erlotinib (10 nM to 5 μM), lapatinib (10 nM to 5 μM), gemcitabine (0.001 nM to 5 μM), OSI-906 (10 nM to 5 μM), lenalidomide (10 nM to 5 μM), or cisplatin (10 nM to 5 μM), diluted in DMSO. The media was replaced with fresh inhibitor every day for erlotinib, lapatinib, lenalidomide and 3 times a week for cisplatin and gemcitabine. Colonies were stained with crystal violet and scored with an Olympus SZH10 microscope. Survival curves were generated at least with five concentration points.

[5] = system: phosphorylated NF-κB; test: immunoblot analysis of cells grown in suspension and treated with erlotinib; assay type: cell-based, human; settings: erlotinib 0.5 μM
Protocol: (§3) In addition, it has been shown that NF-κB signaling is essential for KRAS-driven tumor growth and resistance to EGFR blockade^27-29. This prompted us to ask whether αvβ3 could regulate NF-κB activity through RalB activation and thereby promote tumor cell resistance to EGFR targeted therapy. To test this, tumor cells expressing or lacking integrin αvβ3 and/or RalB were grown in the presence or absence of erlotinib and lysates of these cells were analyzed for activated downstream effectors of RalB. […] NF-κB activity was sufficient to account for EGFR inhibitor resistance since ectopically expressed a constitutively active NF-κB (S276D) in β3-negative FG pancreatic tumor cells^30 conferred resistance to EGFR inhibition, see FIG. 29b). […] Together, our studies describe a role for αvβ3 mediating resistance to EGFR inhibition via RalB activation and its downstream effector NF-κB, opening new avenues to target tumors that are resistant to EGFR targeted therapy, see FIG. 29e.
(§4) Immunoblot analysis of FG, FG-β3 and FG-β3 stably expressing non-silencing or RalB-specific ShRNA, grown in suspension and treated with erlotinib (0.5 μM). pTBK1 refers to phospho-S172 TBK1, p-p65 NF-κB refers to phospho-p65 NF-κB S276, pFAK refers to phospho-FAK Tyr 861. Data are representative of three independent experiments. (b) Tumor spheres formation assay of FG cells ectopically expressing vector control, WT NF-κB FLAG tagged or constitutively active S276D NF-κB FLAG tagged constructs treated with erlotinib (0.5 μM). Error bars represent s.d. (n=3 independent experiments). *P<0.05, **P<0.001, NS=not significant. Immunoblot analysis showing NF-κB WT and S276D NF-κB FLAG transfection efficiency. (c) Tumor spheres formation assay of FG-β3 treating with non-silencing (shCTRL) or NF-κB-specific shRNA and exposed to erlotinib (0.5 μM). Error bars represent s.d. (n=3 independent experiments). *P<0.05, NS=not significant. (d) Dose response in FG-β3 cells treated with erlotinib (10 nM to 5 μM), lenalidomide (10 nM to 5 μM) or a combination of erlotinib (10 nM to 5 μM) and lenalidomide (1 μM). Error bars represent s.d. (n=3 independent experiments). *P<0.05, NS=not significant. (e) Model depicting the integrin αvβ3-mediated EGFR TKI resistance and conquering EGFR TKI resistance pathway and its downstream RalB and NF-κB effectors.
(§5) Cells were lysed in either RIPA lysis buffer (50 mM Tris pH 7.4, 100 mM NaCL, 2 mM EDTA, […], 10% Triton, 0.1% SDS) or Triton lysis buffer (50 mM Tris pH 7.5, 150 mN NaCl, 1 mM EDTA, 5 mM MgCl2, 10% Glycerol, 1% Triton) supplemented with complete protease and phosphatase inhibitor mixtures (Roche) and centrifuged at 13,000 g for 10 min at 4° C. Protein concentration was determined by BCA assay. […]

[6] = system: phosphorylated TBK1; test: as above; assay type: cell-based, human; settings: erlotinib 0.5 μM
Protocol: as §3, §4, §5

[7] = target: avb3 (Homo sapiens, UniProt P05106+P06756); test: cell-free integrin binding assay
[8] = target: avb5 (Homo sapiens, UniProt P06756+P18084); test: cell-free integrin binding assay
[9] = system: angiogenesis and tumor growth; test: angiogenesis and tumor growth in vivo
[10] = system: patients with cancer; test: cancer patient studies; assay type: in vivo, human; settings: various patients with cancer
[11] = system: orthotopic GBM tumors; test: orthotopic brain tumor mouse model; assay type: in vivo
[12] = system: C-RAF S338 phosphorylation; test: C-RAF S338 phosphorylation in brain tumors; assay type: in vivo; settings: mouse orthotopic model
Excerpt: (§6) These events are associated with reduced cell proliferation in vitro and tumor regression in vivo.

[13] = system: C-RAF Ser338; test: C-RAF Ser338 phosphorylation in human glioblastoma cell lines; assay type: cell-based
Excerpt: as §6

[14] = system: G2/M progression; test: G2/M progression after cilengitide treatment; assay type: cell-based

Sequence of avb3 (P06756 31-889 limits assumed): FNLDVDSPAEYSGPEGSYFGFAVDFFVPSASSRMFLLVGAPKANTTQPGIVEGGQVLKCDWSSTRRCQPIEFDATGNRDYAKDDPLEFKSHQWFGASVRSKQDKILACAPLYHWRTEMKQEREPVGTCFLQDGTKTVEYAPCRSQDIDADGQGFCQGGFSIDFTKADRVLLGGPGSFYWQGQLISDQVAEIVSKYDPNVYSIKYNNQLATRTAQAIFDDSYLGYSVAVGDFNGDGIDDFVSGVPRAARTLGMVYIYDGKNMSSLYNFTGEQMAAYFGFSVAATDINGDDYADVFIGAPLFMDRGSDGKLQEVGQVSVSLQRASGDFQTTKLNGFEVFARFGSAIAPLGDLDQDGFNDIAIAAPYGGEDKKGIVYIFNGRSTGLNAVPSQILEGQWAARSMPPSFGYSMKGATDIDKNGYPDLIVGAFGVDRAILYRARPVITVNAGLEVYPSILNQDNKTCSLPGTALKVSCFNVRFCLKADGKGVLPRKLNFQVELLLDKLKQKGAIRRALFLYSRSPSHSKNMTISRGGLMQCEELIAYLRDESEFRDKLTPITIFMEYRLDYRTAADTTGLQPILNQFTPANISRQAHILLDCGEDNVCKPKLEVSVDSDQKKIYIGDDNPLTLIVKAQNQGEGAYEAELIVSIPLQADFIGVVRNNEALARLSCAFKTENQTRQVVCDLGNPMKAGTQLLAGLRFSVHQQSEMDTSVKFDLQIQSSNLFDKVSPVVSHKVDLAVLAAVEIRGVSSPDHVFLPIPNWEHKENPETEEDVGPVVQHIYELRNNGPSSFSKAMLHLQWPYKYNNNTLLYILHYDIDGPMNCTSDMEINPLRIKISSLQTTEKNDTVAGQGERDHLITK
Sequence of avb3 (P06756 891-1048 limits assumed): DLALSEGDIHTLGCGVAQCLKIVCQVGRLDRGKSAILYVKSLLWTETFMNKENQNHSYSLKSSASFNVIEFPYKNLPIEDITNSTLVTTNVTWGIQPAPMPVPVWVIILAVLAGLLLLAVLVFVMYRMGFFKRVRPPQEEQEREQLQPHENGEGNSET
Sequence of avb3 (P05106 27-788): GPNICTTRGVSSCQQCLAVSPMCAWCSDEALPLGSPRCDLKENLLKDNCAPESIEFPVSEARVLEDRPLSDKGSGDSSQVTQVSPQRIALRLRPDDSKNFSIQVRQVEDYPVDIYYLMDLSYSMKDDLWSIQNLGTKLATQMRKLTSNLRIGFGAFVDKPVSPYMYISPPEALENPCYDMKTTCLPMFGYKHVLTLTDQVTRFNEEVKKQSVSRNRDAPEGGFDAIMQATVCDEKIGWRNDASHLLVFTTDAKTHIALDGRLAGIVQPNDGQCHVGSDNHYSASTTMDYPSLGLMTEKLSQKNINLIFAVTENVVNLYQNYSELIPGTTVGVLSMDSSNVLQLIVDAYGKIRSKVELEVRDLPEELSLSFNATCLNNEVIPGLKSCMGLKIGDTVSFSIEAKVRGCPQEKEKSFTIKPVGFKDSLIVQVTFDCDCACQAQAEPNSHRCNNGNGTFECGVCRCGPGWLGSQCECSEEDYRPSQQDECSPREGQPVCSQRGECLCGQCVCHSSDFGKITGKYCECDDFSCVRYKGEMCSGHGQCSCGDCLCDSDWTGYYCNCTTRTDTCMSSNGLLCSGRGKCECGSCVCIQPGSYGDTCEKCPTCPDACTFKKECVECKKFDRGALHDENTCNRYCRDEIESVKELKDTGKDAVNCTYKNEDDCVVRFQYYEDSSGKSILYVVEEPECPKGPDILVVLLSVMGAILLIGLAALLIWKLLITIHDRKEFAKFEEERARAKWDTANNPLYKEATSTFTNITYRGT
Sequence of avb5 (P06756 31-889 limits assumed): as the sequence (P06756 31-889 limits assumed) above
Sequence of avb5 (P06756 891-1048 limits assumed): as the sequence (P06756 891-1048 limits assumed) above
Sequence of avb5 (P18084 24-799): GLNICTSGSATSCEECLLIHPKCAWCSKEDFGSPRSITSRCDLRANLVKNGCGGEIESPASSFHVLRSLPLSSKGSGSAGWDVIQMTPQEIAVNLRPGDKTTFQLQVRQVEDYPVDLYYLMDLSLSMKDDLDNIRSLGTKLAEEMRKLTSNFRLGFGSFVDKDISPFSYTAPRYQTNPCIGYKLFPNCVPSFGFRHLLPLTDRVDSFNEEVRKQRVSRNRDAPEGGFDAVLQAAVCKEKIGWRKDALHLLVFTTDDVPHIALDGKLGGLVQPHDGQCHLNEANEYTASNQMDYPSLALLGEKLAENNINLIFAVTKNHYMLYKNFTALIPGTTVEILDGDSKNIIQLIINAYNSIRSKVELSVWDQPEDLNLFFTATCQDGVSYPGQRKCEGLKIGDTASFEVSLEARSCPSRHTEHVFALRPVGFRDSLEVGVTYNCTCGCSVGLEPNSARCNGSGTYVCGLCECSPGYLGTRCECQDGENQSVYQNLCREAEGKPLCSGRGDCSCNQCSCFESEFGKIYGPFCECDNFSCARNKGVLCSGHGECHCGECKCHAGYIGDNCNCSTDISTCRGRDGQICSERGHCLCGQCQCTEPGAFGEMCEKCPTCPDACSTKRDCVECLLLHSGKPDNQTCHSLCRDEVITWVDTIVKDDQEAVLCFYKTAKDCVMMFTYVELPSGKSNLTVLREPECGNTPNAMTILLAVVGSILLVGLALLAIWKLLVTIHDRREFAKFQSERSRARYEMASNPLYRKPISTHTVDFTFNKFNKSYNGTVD

## C#Cc1cccc(Nc2ncnc3cc(OCCOC)c(OCCOC)cc23)c1 [erlotinib]
[1]; four weeks of erlotinib treatment
  increase in αvβ3 expression: 10 fold
[1]; orthotopic pancreatic tumors after systemic treatment
  effect of ectopic expression of αvβ3 on drug resistance: dramatically increased erlotinib resistance
[2]
  integrin αvβ3 expression compared with vehicle-treated tumors: qualitative increase
[3]
  increase in tumor cell sensitivity on knockdown of αvβ3: 10 fold
[4]
  effect of αvβ3 expression on drug resistance: dramatically increased erlotinib resistance
[4]; β3-positive cells, FIG. 29d combination with lenalidomide (1 μM)
  erlotinib sensitivity under genetic or pharmacological inhibition of NF-κB: completely restored erlotinib sensitivity
[5]; αvβ3 negative cells
  levels of phosphorylated NF-κB: reduced levels
[5]; β3-positive cells
  levels of phosphorylated NF-κB: remained activated
[6]; αvβ3 negative cells
  levels of phosphorylated TBK1: reduced levels
[6]; β3-positive cells
  levels of phosphorylated TBK1: remained activated

## Nc1ccn([C@@H]2O[C@H](CO)[C@@H](O)C2(F)F)c(=O)n1 [gemcitabine]
[4]
  effect of αvβ3 expression on drug resistance: failed to protect cells

## N.N.[Cl][Pt][Cl] [cisplatin]
[4]
  effect of αvβ3 expression on drug resistance: failed to protect cells

## C[C@]1(O)C[C@@H](c2nc(-c3ccc4ccc(-c5ccccc5)nc4c3)c3c(N)nccn32)C1 [OSI-906]
[4]
  effect of αvβ3 expression on drug resistance: induced resistance

## CC(C)[C@H]1C(=O)N[C@@H](CCCN=C(N)N)C(=O)NCC(=O)N[C@@H](CC(=O)O)C(=O)N[C@H](Cc2ccccc2)C(=O)N1C [cilengitide]
[7]
  inhibition of ligand binding to integrin avb3: inhibit ligand binding
[7]; listed as EMD 121974
  inhibition of ligand binding to integrin avb3: potent inhibitor
[8]
  inhibition of ligand binding to integrin avb5: inhibit ligand binding
[8]; listed as EMD 121974
  inhibition of ligand binding to integrin avb5: potent inhibitor
[9]
  angiogenesis and tumor growth in vivo: inhibited angiogenesis and tumor growth
[10]
  efficacy in cancer patients: potentially efficacious in some patients
  toxicity in cancer patients: non-toxic
[11]; CD31, Ki-67 and TUNEL staining
  orthotopic GBM tumor vascularization and growth: inhibits orthotopic GBM tumor vascularization and growth
[11]; GBM tumors implanted in the brain
  tumor burden: decreases tumor burden
[11]; sub-optimal doses of cilengitide and radiation combined
  orthotopic GBM tumor burden: synergize to reduce orthotopic GBM tumor burden
[12]
  C-RAF S338 phosphorylation: blocks C-RAF S338 phosphorylation
[12]; listed as Cilengitide
  C-RAF S338 phosphorylation: prevents the activation/phosphorylation of C-RAF Ser338
[13]
  activation/phosphorylation of C-RAF Ser338: prevents the activation/phosphorylation of C-RAF Ser338
[14]
  G2/M progression: blocks G2/M progression
